Measurements: ChEMBL document CHEMBL6182860, “Discovery and rational optimization of 2, 2'-((1H-indole-2,3-diyl) bis (thio))diacetamide as novel SARS-CoV-2 RdRp inhibitors” (Bioorg Med Chem, 2025)

Legend:
[1] = molecular target: Replicase polyprotein 1ab (Severe acute respiratory syndrome coronavirus 2) (UniProt P0DTD1); assay: Inhibition of SARS-Cov-2 RdRp expressed in HEK293T cells co-transfected with pCoV-Gluc and pCOVID-nsp12/7/8 at 10 uM incubated for 24 hrs by microplate luminometric analysis relative to control; type: cell-based
[2] = molecular target: T1, Replicase polyprotein 1ab (Severe acute respiratory syndrome coronavirus 2, UniProt P0DTD1); assay: Inhibition of SARS-Cov-2 RdRp expressed in HEK293T cells co-transfected with pCoV-Gluc and pCOVID-nsp12/7/8 incubated for 24 hrs by microplate luminometric analysis; type: cell-based
[3] = Cytotoxicity against HEK293T cells assessed as reduction in cell viability incubated for 24 hrs by CCK-8 assay; type: toxicity, cell-based, HEK-293T; settings: human
[4] = molecular target: Replicase polyprotein 1ab (Severe acute respiratory syndrome coronavirus 2) (UniProt P0DTD1); assay: Inhibition of SARS-Cov-2 RdRp expressed in HEK293T cells co-transfected with pCoV-Gluc and pCOVID-nsp12/7/8 assessed as reduction in viral positive strand Gluc-RNA level incubated for 24 hrs by qRT-PCR analysis; type: cell-based
[5] = molecular target: Replicase polyprotein 1ab (Severe acute respiratory syndrome coronavirus 2) (UniProt P0DTD1); assay: Inhibition of SARS-Cov-2 RdRp expressed in HEK293T cells co-transfected with pCoV-Gluc and pCOVID-nsp12/7/8 assessed as reduction in viral negative strand Gluc-RNA level incubated for 24 hrs by qRT-PCR analysis; type: cell-based
[6] = molecular target: T1, Replicase polyprotein 1ab; assay: Inhibition of SARS-Cov-2 RdRp expressed in HEK293T cells co-transfected with pCoV-Gluc and pCOVID-nsp12/7/8/10/14 assessed as tolerance to proof reading activity of nsp14/10 exonuclease incubated for 24 hrs by microplate luminometric analysis; type: cell-based
[7] = molecular target: Replicase polyprotein 1ab (Severe acute respiratory syndrome coronavirus 2) (UniProt P0DTD1); assay: Inhibition of SARS-Cov-2 RdRp expressed in HEK293T cells co-transfected with pCoV-Gluc and pCOVID-nsp12/7/8 at 3 uM incubated for 24 hrs by microplate luminometric analysis; type: cell-based
[8] = tested on: Human coronavirus OC43; assay: Antiviral activity against HCoV OC43 infected in human HCT-8 cells assessed as inhibition of viral replication pre-infected for 1 hrs followed by compound administration and measured 120 hrs post-infection by MTS assay; type: functional, organism-based; settings: for EC50: Betacoronavirus 1, HCT-8; for Activity: time 119.0 hrs
[9] = tested on: Human coronavirus NL63; assay: Antiviral activity against HCoV NL63 infected in rhesus monkey LLC-MK2 cells assessed as inhibition of viral replication pre-infected for 1 hrs followed by compound administration and measured 120 hrs post-infection by MTS assay; type: functional, organism-based; settings: for Activity: time 119.0 hrs
[10] = tested on: Human coronavirus OC43; assay: Antiviral activity against HCoV OC43 infected in human HCT-8 cells assessed as inhibition of viral replication by measuring maximal inhibition at 50 uM pre-infected for 1 hrs followed by compound administration and measured 120 hrs post-infection by MTS assay relative to control; type: functional; settings: time 119 hrs
[11] = tested on: Human coronavirus NL63; assay: Antiviral activity against HCoV NL63 infected in rhesus monkey LLC-MK2 cells assessed as inhibition of viral replication by measuring maximal inhibition at 50 uM pre-infected for 1 hrs followed by compound administration and measured 120 hrs post-infection by MTS assay relative to control; type: functional; settings: time 119 hrs
[12] = molecular target: Replicase polyprotein 1ab (Severe acute respiratory syndrome coronavirus 2) (UniProt P0DTD1); assay: Inhibition of SARS-Cov-2 RdRp expressed in HEK293T cells co-transfected with pCoV-Gluc and pCOVID-nsp12/7/8 at 0.5 to 2 uM incubated for 24 hrs by microplate luminometric analysis; type: cell-based; settings: dose 0.5-2 µM

| SMILES | inhibition [1] [%] | EC50 [2] [nM] | CC50 at 24 h [3] [µM] | other results |
| --- | --- | --- | --- | --- |
| O=C(CSc1[nH]c2ccccc2c1SCC(=O)Nc1ccc(Cl)c(Cl)c1)NCc1ccccc1Cl | 82 | 2330 | > 100 |  |
| O=C(CSc1[nH]c2ccccc2c1SCC(=O)Nc1ccc(Cl)c(Cl)c1)Nc1ccc(Cl)c(Cl)c1 | 88.1 | 2430 | 95.5 |  |
| O=C(CSc1[nH]c2ccccc2c1SCC(=O)Nc1ccc(Cl)c(Cl)c1)NCc1ccccc1F | 93.6 | 1440 | 78.6 | inhibition [4]: Dose-dependent-effect; Inhibition Effect Were Twice As Potent As Remdesivir At 10 Um; inhibition [5]: Dose-dependent-effect; Inhibition Effect Were Twice As Potent As Remdesivir At 10 Um; EC50 [6]: 1800 nM; inhibition [7]: Active; Maximum Inhibitory Effect Observed |
| Cc1ccccc1CNC(=O)CSc1[nH]c2ccccc2c1SCC(=O)Nc1ccc(Cl)c(Cl)c1 | 94.4 | 2440 | > 100 |  |
| O=C(CSc1[nH]c2ccccc2c1SCC(=O)Nc1ccc(Cl)c(Cl)c1)NCc1ccc(Cl)cc1 | 96.6 | 1880 | > 100 |  |
| CCC(CC)COC(=O)[C@H](C)N[P@](=O)(OC[C@H]1O[C@@](C#N)(c2ccc3c(N)ncnn23)[C@H](O)[C@@H]1O)Oc1ccccc1 | 87 |  | > 100 | inhibition ([4]; dose 5-10 µM, time 24.0 hrs): Dose-dependent-effect; inhibition ([5]; dose 5-10 µM, time 24.0 hrs): Dose-dependent-effect; EC50 [8]: 1790 nM; EC50 [9]: 3.42 µM |
| O=C(CSc1[nH]c2ccccc2c1SCC(=O)Nc1ccc(Cl)c(Cl)c1)NCc1ccc(Cl)c(Cl)c1 | 89.1 | 2020 | > 100 |  |
| CCOc1ccccc1NC(=O)CSc1[nH]c2ccccc2c1SCC(=O)Nc1ccccc1OCC | 48.5 |  |  |  |
| O=C(CSc1[nH]c2ccccc2c1SCC(=O)Nc1ccc(Cl)c(Cl)c1)NCc1ccc(-c2ccccc2)cc1 | 93.8 | 1910 | 75.1 |  |
| O=C(CSc1[nH]c2ccccc2c1SCC(=O)Nc1ccc(Cl)c(Cl)c1)NCc1ccccc1 | 97 | 3130 | 87.1 |  |
| CCOc1ccccc1NC(=O)CSc1c(SCC(=O)NCc2ccccc2F)[nH]c2ccccc12 | 89.5 | 710 | > 100 | inhibition ([4]; dose 5-10 µM, time 24.0 hrs): Dose-dependent-effect; inhibition ([5]; dose 5-10 µM, time 24.0 hrs): Dose-dependent-effect; EC50 [6]: 1070 nM; EC50 [8]: 1520 nM; Activity [8]: Dose-dependent-effect; EC50 [9]: 13.4 µM; Activity [9]: Dose-dependent-effect; Imax [10]: 90%; Imax [11]: 80%; inhibition [12]: Active; Better Inhibitory Effect Than Remdesivir Observed |
| O=C(CSc1c[nH]c2ccccc12)Nc1ccc(Cl)c(Cl)c1 | 36 |  |  |  |
| Cc1ccc(CNC(=O)CSc2[nH]c3ccccc3c2SCC(=O)Nc2ccc(Cl)c(Cl)c2)cc1 | 91.9 | 1600 | > 100 |  |
| CCOc1ccccc1NC(=O)CSc1c[nH]c2ccccc12 | 4 |  |  |  |
| CCOc1ccccc1NC(=O)CSc1c(SCC(=O)NCc2cccc(Cl)c2)[nH]c2ccccc12 | 94.8 | 570 | > 100 | inhibition ([4]; dose 5-10 µM, time 24.0 hrs): Dose-dependent-effect; inhibition ([5]; dose 5-10 µM, time 24.0 hrs): Dose-dependent-effect; EC50 [6]: 850 nM; EC50 [8]: 1280 nM; Activity [8]: Dose-dependent-effect; EC50 [9]: 4.11 µM; Activity [9]: Dose-dependent-effect; Imax [10]: 90%; Imax [11]: 80%; inhibition [12]: Active; Better Inhibitory Effect Than Remdesivir Observed |
| CCOc1ccccc1NC(=O)CSc1c(SCC(=O)NCc2ccccc2)[nH]c2ccccc12 | 89.2 | 2140 | > 100 |  |
| CCOc1ccccc1NC(=O)CSc1c(SCC(=O)NCc2ccc(Cl)c(Cl)c2)[nH]c2ccccc12 | 84.8 | 2590 | > 100 |  |
| Cc1cccc(CNC(=O)CSc2[nH]c3ccccc3c2SCC(=O)Nc2ccc(Cl)c(Cl)c2)c1 | 96 | 1550 | 90.3 | inhibition [4]: Dose-dependent-effect; Inhibition Effect Were Twice As Potent As Remdesivir At 10 Um; inhibition [5]: Dose-dependent-effect; Inhibition Effect Were Twice As Potent As Remdesivir At 10 Um; EC50 [6]: 1750 nM; inhibition [7]: Active; Maximum Inhibitory Effect Observed |
| O=C(CSc1[nH]c2ccccc2c1SCC(=O)Nc1ccc(Cl)c(Cl)c1)NCc1cccc(Cl)c1 | 85.1 | 2140 | > 100 |  |
| CCOc1ccccc1NC(=O)CSc1c(SCC(=O)NCc2cccc(C)c2)[nH]c2ccccc12 | 40.2 |  |  |  |
| CCOc1ccccc1NC(=O)CSc1c(SCC(=O)NCc2ccc(C)cc2)[nH]c2ccccc12 | 88.3 | 2760 | > 100 |  |
| COc1ccccc1CNC(=O)CSc1[nH]c2ccccc2c1SCC(=O)Nc1ccc(Cl)c(Cl)c1 | 95.5 | 2000 | > 100 |  |
| CCOc1ccccc1CNC(=O)CSc1[nH]c2ccccc2c1SCC(=O)Nc1ccccc1OCC | 39.2 |  |  |  |
| CCOc1ccccc1CNC(=O)CSc1[nH]c2ccccc2c1SCC(=O)Nc1ccc(Cl)c(Cl)c1 | 92 | 1450 | 72.5 | inhibition ([4]; dose 5-10 µM, time 24.0 hrs): Dose-dependent-effect; inhibition ([5]; dose 5-10 µM, time 24.0 hrs): Dose-dependent-effect; EC50 [6]: 1690 nM; inhibition [7]: Active; Maximum Inhibitory Effect Observed |
| CCOc1ccccc1NC(=O)CSc1c(SCC(=O)NCc2ccccc2Cl)[nH]c2ccccc12 | 80.8 | 2550 | > 100 |  |
| CCOc1ccccc1NC(=O)CSc1c(SCC(=O)NCc2ccccc2OC)[nH]c2ccccc12 | 73.8 | 2360 | > 100 |  |
| CCOc1ccccc1NC(=O)CSc1c(SCC(=O)NCc2ccccc2C)[nH]c2ccccc12 | 77.5 | 2580 | > 100 |  |
| CCOc1ccccc1NC(=O)CSc1c(SCC(=O)NCc2ccc(Cl)cc2)[nH]c2ccccc12 | 95.4 | 1770 | > 100 |  |
| CCOc1ccccc1NC(=O)CSc1c(SCC(=O)NCc2ccc(-c3ccccc3)cc2)[nH]c2ccccc12 | 39.7 |  |  |  |
